For the experiment, the system named is human small cell lung cancer cell NCI-H446. Nature of the experiment: Xenograft model of human small cell lung cancer cell NCI-H446 in nude mice. The format is in vivo, BALB/c nude mice. The settings on record: tail vein injection, QW×3, 6 mg·kg^−1.

The structures appear in SMILES notation.

In the case of `CCc1c2c(nc3ccc(OC(=O)N4CCC(N5CCCCC5)CC4)cc13)-c1cc3c(c(=O)n1C2)COC(=O)[C@]3(O)CC` [Irinotecan], the “Relative tumor proliferation rate (% T/C)” value is listed as 66.0%.
